Laboratory results from patent US8318757B2, “Substituted isoxazoline compound and pest control agent” (Nissan Chemical Industries, Ltd., priority 2007, dated 2012).

Key:
Type in all cases: in vivo
American Dog Tick = assay: Mortality Test for American Dog Tick; details: Dermacentor variabilis, 96 h; thin film in petri dishes, applied drug 0.1 μg/cm^2; protonymphs; after 4 days
Experimental: To the bottom surface and the side surface of two petri dishes having an inner diameter of 5.3 cm, 400 μL of an acetone solution in which 4 mg of the compound of the present invention was dissolved in 40 mL of acetone (concentration: 100 ppm) was applied and then acetone was volatilized to form a thin film of the compound of the present invention on the inner wall of the petri dishes. […] In one of the petri dishes, ten American dog tick (Dermacentor variabilis) protonymphs (male and female were mixed) were released, and the petri dish was capped with the other petri dish. […] The number of killed protonymphs after 4 days was measured and the mortality was calculated from the same calculation formula as that in Test Example 1. Here, the test was carried out on the single sample.

Aculops pelekassi = assay: whole plant or invertebrate; details: 144 h
Experimental: In a styrol cup having an inner diameter of 7 cm, a wet filtration paper was laid and on the paper, a leaf of mandarin orange cut out so as to have the same diameter as the inner diameter of the cup was laid, followed by inoculating ten larvae of Aculops pelekassi per leaf with the leaf. A 10% emulsifiable concentrate of the compound of the present invention (depending on the type of the compound, a 10% wettable powder was subjected to the test) was diluted with water containing a spreader to prepare a drug solution in a concentration of 100 ppm. The drug solution was sprayed using a rotary spray tower in an amount of 2.5 mL per styrol cup, and the cup was capped and stored in a thermostatic room of 25° C. The number of killed larvae after 6 days was measured and the mortality was calculated from the same calculation formula as that in Test Example 1. Here, the test was carried out on the duplicate samples.

Spodoptera exigua = assay: Mortality Test for Spodoptera exigua; details: in Brassica oleracea, 144 h
Experimental: A 10% emulsifiable concentrate of the compound of the present invention (depending on the type of the compound, a 10% wettable powder was subjected to the test) was diluted with water containing a spreader to prepare a drug solution in a concentration of 100 ppm. In this drug solution, a leaf of cabbage was immersed for about 10 seconds and was air-dried and then put into a petri dish. In the petri dish, five 2 instar larvae of Spodoptera exigua per petri dish were released and the petri dish was capped and stored in a thermostatic room of 25° C. The number of killed larvae after 6 days was measured and the mortality was calculated from the same calculation formula as that in Test Example 1. Here, the test was carried out on the duplicate samples.

Cat Flea = assay: Mortality Test for Cat Flea; details: Ctenocephalides felis, 96 h
Experimental: To the bottom surface and the side surface of a petri dish having an inner diameter of 5.3 cm, 400 μL of an acetone solution in which 4 mg of the compound of the present invention was dissolved in 40 mL of acetone (concentration: 100 ppm) was applied and then acetone was volatilized to form a thin film of the compound of the present invention on the inner wall of the petri dish. […] In the petri dish, ten Ctenocephalides felis imagines (male and female were mixed) were released and the petri dish was capped and stored in a thermostat room of 25° C. The number of killed imagines after 4 days was measured and the mortality was calculated from the same calculation formula as that in Test Example 1. Here, the test was carried out on the single sample.

CSC(SC)C(=O)NCc1ccc(C2=NOC(c3cc(C(F)(F)F)cc(C(F)(F)F)c3)(C(F)(F)F)C2)cc1Cl (stereo not shown) [1-206, N-[4-[5-[3,5-bis(trifluoromethyl)phenyl]-5-trifluoromethyl-4,5-dihydroisoxazole-3-yl]-2-chlorophenyl]methyl-2,2-bis(methylthio)acetamide]
≥ 80%: mortality at 0.1 µg/cm2 (American Dog Tick) | mortality at 100 ppm (Aculops pelekassi) | mortality at 100 ppm (Spodoptera exigua) | mortality at 1 µg/cm2 (Cat Flea)
